Data from ChEMBL document CHEMBL1136964, “Nicotinic agonist binding site mapped by methionine- and tyrosine-scanning coupled with azidochloropyridinyl photoaffinity labeling” (J Med Chem, 2009).

Key:
Type in all cases: cell-based
[1] = Binding affinity to Aplysia californica AchBP A107M, M116L, Y195F mutant expressed in HEK293S cells by scintillation proximity assay
HEK293S [2] = experiment: Binding affinity to Aplysia californica AchBP I106M, M116L, Y195F mutant expressed in HEK293S cells assessed as specific photoincorporation at 46 pmol by scintillation counting relative to wild type
[3] = Binding affinity to Aplysia californica AchBP A107M mutant expressed in HEK293S cells by scintillation proximity assay
[4] = Binding affinity to Aplysia californica AchBP S114M, M116L mutant expressed in HEK293S cells by scintillation proximity assay
HEK293S [5] = experiment: Binding affinity to Aplysia californica AchBP M116Y mutant expressed in HEK293S cells assessed as specific photoincorporation at 46 pmol by scintillation counting relative to wild type
HEK293S [6] = experiment: Binding affinity to Aplysia californica AchBP M116Y, Y195F mutant expressed in HEK293S cells assessed as specific photoincorporation at 46 pmol by scintillation counting
HEK293S [7] = experiment: Binding affinity to Aplysia californica AchBP V108M mutant expressed in HEK293S cells assessed as specific photoincorporation at 46 pmol by scintillation counting
[8] = Binding affinity to Aplysia californica AchBP I118M, M116L mutant expressed in HEK293S cells by scintillation proximity assay
HEK293S [9] = experiment: Binding affinity to Aplysia californica AchBP A107M, M116L, Y195F mutant expressed in HEK293S cells assessed as specific photoincorporation at 46 pmol by scintillation counting relative to wild type
[10] = Binding affinity to Aplysia californica AchBP V108M mutant expressed in HEK293S cells by scintillation proximity assay
HEK293S [11] = experiment: Binding affinity to Aplysia californica AchBP S114M, M116L mutant expressed in HEK293S cells assessed as specific photoincorporation at 46 pmol by scintillation counting
[12] = Binding affinity to Aplysia californica AchBP Y195F mutant expressed in HEK293S cells by scintillation proximity assay
[13] = Binding affinity to Aplysia californica AchBP I106M, M116L, Y195F mutant expressed in HEK293S cells by scintillation proximity assay
[14] = Binding affinity to Aplysia californica AchBP V108M, M116L mutant expressed in HEK293S cells by scintillation proximity assay
HEK293S [15] = experiment: Binding affinity to Aplysia californica AchBP Y195F mutant expressed in HEK293S cells assessed as specific photoincorporation at 46 pmol by scintillation counting
HEK293S [16] = experiment: Binding affinity to Aplysia californica AchBP V108M mutant expressed in HEK293S cells assessed as specific photoincorporation at 46 pmol by scintillation counting relative to wild type
HEK293S [17] = experiment: Binding affinity to Aplysia californica AchBP I118M, M116L mutant expressed in HEK293S cells assessed as specific photoincorporation at 46 pmol by scintillation counting
HEK293S [18] = experiment: Binding affinity to Aplysia californica AchBP M116L mutant expressed in HEK293S cells assessed as specific photoincorporation at 46 pmol by scintillation counting
[19] = Binding affinity to Aplysia californica AchBP M116Y, Y195F mutant expressed in HEK293S cells by scintillation proximity assay
HEK293S [20] = experiment: Binding affinity to Aplysia californica AchBP I118M, M116L, Y195F mutant expressed in HEK293S cells assessed as specific photoincorporation at 46 pmol by scintillation counting relative to wild type
HEK293S [21] = experiment: Binding affinity to Aplysia californica AchBP M116L,Y195F mutant expressed in HEK293S cells assessed as specific photoincorporation at 46 pmol by scintillation counting relative to wild type
[22] = Binding affinity to Aplysia californica AchBP M116L mutant expressed in HEK293S cells by scintillation proximity assay
[23] = Binding affinity to Aplysia californica AchBP A107M, M116L mutant expressed in HEK293S cells by scintillation proximity assay
[24] = Binding affinity to Aplysia californica AchBP S114M mutant expressed in HEK293S cells by scintillation proximity assay
HEK293S [25] = experiment: Binding affinity to Aplysia californica AchBP Y195F mutant expressed in HEK293S cells assessed as specific photoincorporation at 46 pmol by scintillation counting relative to wild type
HEK293S [26] = experiment: Binding affinity to Aplysia californica AchBP V108M, M116L mutant expressed in HEK293S cells assessed as specific photoincorporation at 46 pmol by scintillation counting relative to wild type
HEK293S [27] = experiment: Binding affinity to Aplysia californica AchBP S114M, M116L, Y195F mutant expressed in HEK293S cells assessed as specific photoincorporation at 46 pmol by scintillation counting relative to wild type
HEK293S [28] = experiment: Binding affinity to Aplysia californica AchBP A107M mutant expressed in HEK293S cells assessed as specific photoincorporation at 46 pmol by scintillation counting
[29] = Binding affinity to Aplysia californica AchBP S114M, M116L, Y195F mutant expressed in HEK293S cells by scintillation proximity assay
HEK293S [30] = experiment: Binding affinity to Aplysia californica AchBP I118M, M116L mutant expressed in HEK293S cells assessed as specific photoincorporation at 46 pmol by scintillation counting relative to wild type
HEK293S [31] = experiment: Binding affinity to Aplysia californica AchBP I118M, M116L, Y195F mutant expressed in HEK293S cells assessed as specific photoincorporation at 46 pmol by scintillation counting
HEK293S [32] = experiment: Binding affinity to Aplysia californica AchBP S114M, M116L, Y195F mutant expressed in HEK293S cells assessed as specific photoincorporation at 46 pmol by scintillation counting
HEK293S [33] = experiment: Binding affinity to Aplysia californica AchBP I106M, M116L mutant expressed in HEK293S cells assessed as specific photoincorporation at 46 pmol by scintillation counting relative to wild type
[34] = Binding affinity to Aplysia californica AchBP I118M, M116L, Y195F mutant expressed in HEK293S cells by scintillation proximity assay
HEK293S [35] = experiment: Binding affinity to Aplysia californica AchBP A107M mutant expressed in HEK293S cells assessed as specific photoincorporation at 46 pmol by scintillation counting relative to wild type
[36] = Binding affinity to Aplysia californica AchBP I106M, M116L mutant expressed in HEK293S cells by scintillation proximity assay
HEK293S [37] = experiment: Binding affinity to Aplysia californica AchBP V108M, M116L, Y195F mutant expressed in HEK293S cells assessed as specific photoincorporation at 46 pmol by scintillation counting relative to wild type
[38] = Binding affinity to Aplysia californica AchBP M116Y mutant expressed in HEK293S cells by scintillation proximity assay

**Q.** Which results are given for `Clc1ccc(C2CC3CCC2N3)cn1` (racemic) [EPIBATIDINE]?
**A.** Kd [1]: 25 nM; Activity (HEK293S [2]): 13%; Kd [3]: 10 nM; Kd [4]: 12 nM; Activity (HEK293S [5]): 59%; Activity (HEK293S [6]): 8.7%; Activity (HEK293S [7]): 9.5%; Kd [8]: 5 nM; Activity (HEK293S [9]): 13%; Kd [10]: 7.6 nM; Activity (HEK293S [11]): 19%; Kd [12]: 21 nM; Kd [13]: 29 nM; Kd [14]: 2.9 nM; Activity (HEK293S [15]): 1%; Activity (HEK293S [16]): 33%; Activity (HEK293S [17]): 16%; Activity (HEK293S [18]): 35%; Kd [19]: 115 nM; Activity (HEK293S [20]): 16%; Activity (HEK293S [21]): 6.9%; Kd [22]: 9 nM; Kd [23]: 7.5 nM; Kd [24]: 16 nM; Activity (HEK293S [25]): 3.4%; Activity (HEK293S [26]): 28%; Activity (HEK293S [27]): 13%; Activity (HEK293S [28]): 27%; Kd [29]: 24 nM; Activity (HEK293S [30]): 55%; Activity (HEK293S [31]): 4.7%; Activity (HEK293S [32]): 3.9%; Activity (HEK293S [33]): 90%; Kd [34]: 24 nM; Activity (HEK293S [35]): 93%; Kd [36]: 12 nM; Activity (HEK293S [37]): 0%; Kd [38]: 57 nM
